Among the test systems are ACHN renal; DLD-1 colon; DMS 114 small cell lung; DMS 273 small cell lung; HCT-15 colon; HOP-18 NSCLC; KM20L2 colon; LXFL 529 NSCLC; M19-MEL melanoma; MOLT-4 leukemia; NCI-H23 lung; OVCAR-5 ovarian; RPMI-8226 leukemia; SF-539 CNS; SNB-78 CNS; XF 498 CNS.
Common to all, as to assay: NCI anticancer screen, dose series, 48 h

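Tested at 5 concentrations; 48 h exposure; 96-well plates; endpoints linearly interpolated, else capped at highest concentration. TGI: concentration producing complete growth inhibition.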 Some results are limits rather than exact numbers.

Results on ten compounds are retold here after PubChem BioAssay (NCI).

For the compound `[N-]=[N+]=NC(CBr)c1cn([C@H]2C[C@H](O)[C@@H](CO)O2)c(=O)[nH]c1=O` (stereo partly specified), the TGI in the assay with ACHN renal, with DLD-1 colon, in the assay with DMS 114 small cell lung, with DMS 273 small cell lung, in the assay on HCT-15 colon and in the assay with HOP-18 NSCLC was above 100 µM throughout. Further, the TGI with KM20L2 colon, with LXFL 529 NSCLC, in the assay with M19-MEL melanoma, in the assay with MOLT-4 leukemia, in the assay on NCI-H23 lung and in the assay on OVCAR-5 ovarian was above 100 µM each time. Moreover, the TGI with RPMI-8226 leukemia, with SF-539 CNS and in the assay with SNB-78 CNS was above 100 µM throughout.

In the case of `CSc1nc2[nH]c(=O)c(C)nc2c(=O)[nH]1`, the TGI with ACHN renal, in the assay on DLD-1 colon, in the assay with DMS 114 small cell lung, in the assay on DMS 273 small cell lung, with HCT-15 colon and in the assay on KM20L2 colon was above 100 µM throughout. In addition, the TGI in the assay with LXFL 529 NSCLC, in the assay with M19-MEL melanoma, in the assay on MOLT-4 leukemia, in the assay with NCI-H23 lung, in the assay on OVCAR-5 ovarian and in the assay on RPMI-8226 leukemia was above 100 µM each time. This compound also displayed a TGI in the assay with XF 498 CNS above 100 µM.

For `CC(=O)NNc1nc(C)c(C(/C=C/c2ccc(Cl)cc2)=N/NC(=O)C[N+](C)(C)C)s1`, the TGI with ACHN renal, in the assay on DLD-1 colon, in the assay on DMS 114 small cell lung, in the assay on DMS 273 small cell lung, in the assay with HCT-15 colon and in the assay with HOP-18 NSCLC was above 100 µM in each case. Further, the TGI with KM20L2 colon, with LXFL 529 NSCLC, in the assay with M19-MEL melanoma, in the assay with MOLT-4 leukemia, in the assay with NCI-H23 lung and in the assay with OVCAR-5 ovarian was above 100 µM each time. For the same compound, in the assay on SF-539 CNS, the TGI was above 100 µM.

Consider `O=C1CC(=O)N(CCc2ccccc2)S(=O)(=O)N1CCc1ccccc1`, for which the TGI is above 100 µM in the assay on ACHN renal; above 100 µM in the assay on DLD-1 colon; 48.6 µM in the assay with DMS 114 small cell lung; 43.8 µM in the assay with DMS 273 small cell lung; above 100 µM in the assay with HCT-15 colon; above 100 µM in the assay on HOP-18 NSCLC. The TGI in the assay with LXFL 529 NSCLC is 40.7 µM; in the assay with M19-MEL melanoma it was above 100 µM; in the assay with MOLT-4 leukemia, 44.2 µM; with NCI-H23 lung, 69.1 µM; in the assay on OVCAR-5 ovarian, 64.4 µM; in the assay on RPMI-8226 leukemia it was 52 µM. Besides, the TGI in the assay with SF-539 CNS is 43.5 µM.

Regarding `Cn1ncnc1CCc1ccccc1`, the TGI in the assay with ACHN renal, in the assay on DMS 114 small cell lung, in the assay on DMS 273 small cell lung, with HCT-15 colon, with HOP-18 NSCLC and in the assay on KM20L2 colon was above 100 µM in each case. The TGI with LXFL 529 NSCLC, in the assay on M19-MEL melanoma, in the assay with MOLT-4 leukemia, with NCI-H23 lung, with OVCAR-5 ovarian and in the assay on RPMI-8226 leukemia was above 100 µM in each case. The TGI in the assay with SF-539 CNS and in the assay on SNB-78 CNS was above 100 µM in each case.

In the case of `CN(C)C(=O)Oc1ccc(-c2cn3cc(NC(=O)c4ccccc4)ccc3n2)cc1`, the TGI in the assay on ACHN renal, in the assay on HCT-15 colon, in the assay with MOLT-4 leukemia, with NCI-H23 lung, in the assay with OVCAR-5 ovarian and with RPMI-8226 leukemia was above 100 µM throughout. In addition, the TGI with SF-539 CNS is above 100 µM.

For the compound `COc1cc([C@@H]2c3cc4c(cc3[C@@H](NC(=O)c3cccc(F)c3)C3COC(=O)[C@@H]32)OCO4)cc(OC)c1O` (stereo partly specified), the TGI with ACHN renal is 1.85 µM; with DLD-1 colon, 25.4 µM; with DMS 114 small cell lung it was 5.2 µM; in the assay on DMS 273 small cell lung, 11.3 µM; with HCT-15 colon, 7.09 µM; in the assay on HOP-18 NSCLC, above 100 µM. Besides, the TGI in the assay on KM20L2 colon is 6.89 µM; in the assay on LXFL 529 NSCLC, above 100 µM; in the assay on M19-MEL melanoma, 41.4 µM; with MOLT-4 leukemia, 1.06 µM; with NCI-H23 lung, 3.18 µM; in the assay on OVCAR-5 ovarian it was 33 µM. Further, the TGI is 5.85 µM in the assay on RPMI-8226 leukemia, 1.7 µM in the assay on SF-539 CNS and above 100 µM in the assay on SNB-78 CNS.

Consider `O=C(NC(Nc1ccc(F)c(Cl)c1)(C(F)(F)F)C(F)(F)F)OCc1ccccc1`, for which the TGI in the assay with ACHN renal is above 100 µM; in the assay with HCT-15 colon, 94.5 µM; in the assay on MOLT-4 leukemia, 89.1 µM; with NCI-H23 lung, above 100 µM; in the assay on OVCAR-5 ovarian, above 100 µM; in the assay on RPMI-8226 leukemia it was 61.4 µM. Besides, in the assay on SF-539 CNS, the TGI came to 42.6 µM.

Consider `COc1ccc(CNc2nc3c(NC(C)=O)cc(C(F)(F)F)cc3nc2-c2ccccc2)cc1OC`, for which the TGI in the assay on DLD-1 colon, in the assay on DMS 114 small cell lung, with DMS 273 small cell lung, with HCT-15 colon, in the assay on KM20L2 colon and in the assay with LXFL 529 NSCLC was above 100 µM throughout. Besides, the TGI in the assay with M19-MEL melanoma, with MOLT-4 leukemia, with NCI-H23 lung, with OVCAR-5 ovarian, in the assay on RPMI-8226 leukemia and with SF-539 CNS was above 100 µM in each case. Further, the TGI in the assay with SNB-78 CNS and with XF 498 CNS was above 100 µM throughout.

Take `COc1cc2c(cc1OC)C(=O)C(C1=C(SC(=N)N)C(=O)c3cc(OC)c(OC)cc31)C2` (stereo unspecified): the TGI in the assay on ACHN renal, in the assay on DLD-1 colon, in the assay on DMS 114 small cell lung, in the assay on DMS 273 small cell lung, in the assay with HCT-15 colon and with KM20L2 colon was above 100 µM in each case. In addition, the TGI with LXFL 529 NSCLC, with M19-MEL melanoma, in the assay with MOLT-4 leukemia, in the assay on NCI-H23 lung, in the assay with OVCAR-5 ovarian and in the assay with RPMI-8226 leukemia was above 100 µM in each case. For the same compound, the TGI in the assay with SF-539 CNS, in the assay on SNB-78 CNS and in the assay on XF 498 CNS was above 100 µM in each case.
